Laboratory results: ChEMBL document CHEMBL4507276 (2021)

What was measured:
[1] = biological target: 5-hydroxytryptamine receptor 1B (Rattus norvegicus) (UniProt P28564); assay: 5HT1B/R Cerep selectivity data (BI); conditions: Compound concentration 20.0 uM
[2] = biological target: Gamma-aminobutyric acid receptor subunit alpha-1 (Homo sapiens) (UniProt P14867); assay: GABAA1(H) Cerep selectivity data (BI); conditions: filed as agonist, Compound concentration 20.0 uM
[3] = biological target: T1, Muscarinic acetylcholine receptor M2 (Homo sapiens) (UniProt P08172); assay: M2/H Cerep selectivity data (BI); conditions: filed as antagonist, Compound concentration 20.0 uM
T1 sequence (whole entry): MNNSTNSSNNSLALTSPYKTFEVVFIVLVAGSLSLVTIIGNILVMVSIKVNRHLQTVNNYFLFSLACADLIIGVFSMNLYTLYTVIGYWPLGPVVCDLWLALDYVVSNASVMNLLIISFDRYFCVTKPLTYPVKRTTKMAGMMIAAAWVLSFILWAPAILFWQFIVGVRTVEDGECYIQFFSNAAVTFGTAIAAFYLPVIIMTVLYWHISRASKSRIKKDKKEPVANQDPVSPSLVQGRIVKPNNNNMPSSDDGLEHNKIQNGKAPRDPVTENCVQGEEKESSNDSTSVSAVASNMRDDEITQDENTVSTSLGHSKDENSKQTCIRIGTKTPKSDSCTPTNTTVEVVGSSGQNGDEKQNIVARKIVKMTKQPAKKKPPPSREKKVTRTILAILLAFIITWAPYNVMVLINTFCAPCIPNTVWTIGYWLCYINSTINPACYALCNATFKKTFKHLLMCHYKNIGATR

[4] = biological target: Tumor necrosis factor (Homo sapiens) (UniProt P01375); assay: TNFALPHA/H Cerep selectivity data (BI); conditions: Compound concentration 20.0 uM
[5] = system: Tyrosine-protein kinase ABL1 (Homo sapiens), P00519 [G250E]; assay: ABL1 G250E Invitrogen selectivity data (BI); conditions: Compound concentration 3.0 uM
[6] = biological target: Cyclin-dependent kinase 1/cyclin B (Homo sapiens) (UniProt P06493+P14635+Q8WWL7+O95067); assay: CDK1/CYCLINB Invitrogen selectivity data (BI); type: protein-complex assay; conditions: Compound concentration 3.0 uM
[7] = biological target: CDK8/Cyclin C (Homo sapiens) (UniProt P49336+P24863); assay: CDK8_CYCLINC Invitrogen selectivity data (BI); type: protein-complex assay; conditions: Compound concentration 3.0 uM
[8] = biological target: T2, Myotonin-protein kinase (Homo sapiens) (UniProt Q09013); assay: DMPK Invitrogen selectivity data (BI); conditions: Compound concentration 3.0 uM
T2 sequence (whole entry): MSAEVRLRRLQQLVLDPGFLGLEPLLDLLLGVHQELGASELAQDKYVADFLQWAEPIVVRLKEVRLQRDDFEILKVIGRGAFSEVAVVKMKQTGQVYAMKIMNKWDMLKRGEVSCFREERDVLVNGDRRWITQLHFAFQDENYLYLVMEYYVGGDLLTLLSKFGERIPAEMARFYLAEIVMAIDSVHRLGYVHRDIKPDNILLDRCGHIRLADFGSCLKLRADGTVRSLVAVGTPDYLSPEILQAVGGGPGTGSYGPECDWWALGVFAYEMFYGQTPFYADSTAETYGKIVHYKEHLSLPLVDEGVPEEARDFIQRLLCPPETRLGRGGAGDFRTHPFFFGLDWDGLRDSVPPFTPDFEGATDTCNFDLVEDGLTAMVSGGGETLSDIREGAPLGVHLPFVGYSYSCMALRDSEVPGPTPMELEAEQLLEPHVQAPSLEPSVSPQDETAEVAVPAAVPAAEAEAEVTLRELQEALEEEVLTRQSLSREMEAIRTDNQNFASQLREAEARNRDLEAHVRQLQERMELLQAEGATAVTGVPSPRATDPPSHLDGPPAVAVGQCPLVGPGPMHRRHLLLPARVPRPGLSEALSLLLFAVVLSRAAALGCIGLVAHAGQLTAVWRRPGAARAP

[9] = biological target: Receptor tyrosine-protein kinase erbB-4 (Homo sapiens) (UniProt Q15303); assay: ERBB4 Invitrogen selectivity data (BI); conditions: Compound concentration 3.0 uM
[10] = biological target: Serine/threonine-protein kinase PAK 2 (Homo sapiens) (UniProt Q13177); assay: PAK2 Invitrogen selectivity data (BI); conditions: Compound concentration 3.0 uM
[11] = biological target: Serine/threonine-protein kinase PLK2 (Homo sapiens) (UniProt Q9NYY3); assay: PLK2 Invitrogen selectivity data (BI); conditions: Compound concentration 3.0 uM
[12] = biological target: T3, Tyrosine-protein kinase Tec (Homo sapiens) (UniProt P42680); assay: TEC Invitrogen selectivity data (BI); conditions: Compound concentration 3.0 uM
T3 sequence (whole entry): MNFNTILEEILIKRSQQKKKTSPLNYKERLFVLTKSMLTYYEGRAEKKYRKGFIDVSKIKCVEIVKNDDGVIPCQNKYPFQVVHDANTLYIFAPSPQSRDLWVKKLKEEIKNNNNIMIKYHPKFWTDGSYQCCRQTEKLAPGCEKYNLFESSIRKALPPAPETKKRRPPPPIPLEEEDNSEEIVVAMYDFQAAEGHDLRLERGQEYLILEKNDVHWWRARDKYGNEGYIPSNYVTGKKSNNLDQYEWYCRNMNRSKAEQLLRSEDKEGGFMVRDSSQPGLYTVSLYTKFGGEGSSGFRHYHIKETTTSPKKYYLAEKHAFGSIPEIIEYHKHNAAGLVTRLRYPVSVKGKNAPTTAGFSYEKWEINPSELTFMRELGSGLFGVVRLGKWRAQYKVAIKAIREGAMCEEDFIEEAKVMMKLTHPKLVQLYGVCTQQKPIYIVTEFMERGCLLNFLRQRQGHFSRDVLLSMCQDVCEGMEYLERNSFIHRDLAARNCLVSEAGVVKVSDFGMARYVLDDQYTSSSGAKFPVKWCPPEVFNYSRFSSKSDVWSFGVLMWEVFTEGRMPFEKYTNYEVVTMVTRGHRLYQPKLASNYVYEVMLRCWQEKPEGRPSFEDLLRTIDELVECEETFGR

[13] = biological target: T4, Tyrosine-protein kinase ZAP-70 (Homo sapiens) (UniProt P43403); assay: ZAP70 Invitrogen selectivity data (BI); conditions: Compound concentration 3.0 uM
T4 sequence (whole entry): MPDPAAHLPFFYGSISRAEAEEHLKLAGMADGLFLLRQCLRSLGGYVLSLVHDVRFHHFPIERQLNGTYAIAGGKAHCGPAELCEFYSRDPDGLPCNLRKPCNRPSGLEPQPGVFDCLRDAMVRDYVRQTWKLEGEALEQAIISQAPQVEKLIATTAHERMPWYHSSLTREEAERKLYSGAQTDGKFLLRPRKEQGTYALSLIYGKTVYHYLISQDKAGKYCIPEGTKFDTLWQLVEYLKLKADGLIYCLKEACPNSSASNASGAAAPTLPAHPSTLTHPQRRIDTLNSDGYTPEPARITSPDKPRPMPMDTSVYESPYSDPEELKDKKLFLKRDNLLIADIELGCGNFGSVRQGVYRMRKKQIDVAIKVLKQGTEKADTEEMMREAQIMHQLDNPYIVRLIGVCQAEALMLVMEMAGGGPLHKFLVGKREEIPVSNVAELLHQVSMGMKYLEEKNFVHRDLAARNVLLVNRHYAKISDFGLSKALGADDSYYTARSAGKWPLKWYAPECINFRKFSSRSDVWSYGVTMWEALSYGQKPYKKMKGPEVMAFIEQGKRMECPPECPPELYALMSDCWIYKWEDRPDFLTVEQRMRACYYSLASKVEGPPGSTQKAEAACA

Measured: residual activity

Gamma-aminobutyric acid receptor subunit alpha-1 (Homo sapiens), sequence (P14867 whole entry): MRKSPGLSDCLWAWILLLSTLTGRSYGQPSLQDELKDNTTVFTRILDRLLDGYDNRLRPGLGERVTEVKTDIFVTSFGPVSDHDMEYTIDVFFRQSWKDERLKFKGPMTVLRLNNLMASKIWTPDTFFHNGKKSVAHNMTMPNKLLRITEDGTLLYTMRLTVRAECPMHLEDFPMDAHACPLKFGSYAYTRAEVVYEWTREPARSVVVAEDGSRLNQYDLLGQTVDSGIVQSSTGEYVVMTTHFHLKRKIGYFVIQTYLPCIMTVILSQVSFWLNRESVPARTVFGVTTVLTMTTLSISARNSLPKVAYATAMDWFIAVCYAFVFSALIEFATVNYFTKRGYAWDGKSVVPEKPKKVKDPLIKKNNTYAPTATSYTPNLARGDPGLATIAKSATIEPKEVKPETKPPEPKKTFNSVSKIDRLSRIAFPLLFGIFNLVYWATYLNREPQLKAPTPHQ
Serine/threonine-protein kinase PAK 2 (Homo sapiens), sequence (Q13177 whole entry): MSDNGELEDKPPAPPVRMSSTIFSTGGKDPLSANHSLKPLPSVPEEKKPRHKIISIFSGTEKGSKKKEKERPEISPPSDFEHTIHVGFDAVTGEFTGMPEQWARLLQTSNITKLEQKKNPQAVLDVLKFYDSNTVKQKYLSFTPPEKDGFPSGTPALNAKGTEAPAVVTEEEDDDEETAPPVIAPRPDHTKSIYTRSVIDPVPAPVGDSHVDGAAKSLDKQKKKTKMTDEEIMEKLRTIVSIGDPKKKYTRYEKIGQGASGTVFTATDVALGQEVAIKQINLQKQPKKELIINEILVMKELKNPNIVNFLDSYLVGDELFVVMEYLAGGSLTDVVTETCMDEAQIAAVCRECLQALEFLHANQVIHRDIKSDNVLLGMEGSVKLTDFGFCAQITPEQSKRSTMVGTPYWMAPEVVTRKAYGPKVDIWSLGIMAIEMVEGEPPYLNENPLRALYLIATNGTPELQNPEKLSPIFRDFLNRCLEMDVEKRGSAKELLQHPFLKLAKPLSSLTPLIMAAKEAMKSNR
Serine/threonine-protein kinase PLK2 (Homo sapiens), sequence (Q9NYY3 whole entry, looked up): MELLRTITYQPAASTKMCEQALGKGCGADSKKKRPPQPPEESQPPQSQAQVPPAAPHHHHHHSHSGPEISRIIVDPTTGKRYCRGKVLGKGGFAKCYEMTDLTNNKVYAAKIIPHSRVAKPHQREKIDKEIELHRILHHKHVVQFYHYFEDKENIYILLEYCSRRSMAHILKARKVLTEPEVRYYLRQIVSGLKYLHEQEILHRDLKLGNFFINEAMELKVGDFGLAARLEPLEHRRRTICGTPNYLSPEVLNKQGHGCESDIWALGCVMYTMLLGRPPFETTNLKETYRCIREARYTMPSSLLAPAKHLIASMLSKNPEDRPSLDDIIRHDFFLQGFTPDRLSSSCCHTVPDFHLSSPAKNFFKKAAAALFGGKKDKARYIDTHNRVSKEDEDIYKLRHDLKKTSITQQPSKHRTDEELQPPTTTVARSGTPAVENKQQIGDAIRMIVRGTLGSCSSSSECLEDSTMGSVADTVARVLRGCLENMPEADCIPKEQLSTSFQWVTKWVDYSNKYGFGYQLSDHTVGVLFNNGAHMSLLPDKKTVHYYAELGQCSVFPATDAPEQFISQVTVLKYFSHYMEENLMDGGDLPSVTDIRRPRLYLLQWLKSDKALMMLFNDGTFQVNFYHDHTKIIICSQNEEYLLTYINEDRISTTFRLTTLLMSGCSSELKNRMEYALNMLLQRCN
5-hydroxytryptamine receptor 1B (Rattus norvegicus), sequence (P28564 whole entry): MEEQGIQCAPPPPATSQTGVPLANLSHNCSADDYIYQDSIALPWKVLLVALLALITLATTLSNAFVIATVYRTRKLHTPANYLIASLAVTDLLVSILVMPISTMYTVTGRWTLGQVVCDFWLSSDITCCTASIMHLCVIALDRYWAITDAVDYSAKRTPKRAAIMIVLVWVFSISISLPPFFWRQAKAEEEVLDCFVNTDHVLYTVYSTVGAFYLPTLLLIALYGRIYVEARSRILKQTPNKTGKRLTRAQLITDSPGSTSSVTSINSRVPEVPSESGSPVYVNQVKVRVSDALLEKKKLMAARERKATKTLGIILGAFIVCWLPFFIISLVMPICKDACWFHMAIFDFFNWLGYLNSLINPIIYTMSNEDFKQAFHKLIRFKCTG
Receptor tyrosine-protein kinase erbB-4 (Homo sapiens), sequence (Q15303 whole entry): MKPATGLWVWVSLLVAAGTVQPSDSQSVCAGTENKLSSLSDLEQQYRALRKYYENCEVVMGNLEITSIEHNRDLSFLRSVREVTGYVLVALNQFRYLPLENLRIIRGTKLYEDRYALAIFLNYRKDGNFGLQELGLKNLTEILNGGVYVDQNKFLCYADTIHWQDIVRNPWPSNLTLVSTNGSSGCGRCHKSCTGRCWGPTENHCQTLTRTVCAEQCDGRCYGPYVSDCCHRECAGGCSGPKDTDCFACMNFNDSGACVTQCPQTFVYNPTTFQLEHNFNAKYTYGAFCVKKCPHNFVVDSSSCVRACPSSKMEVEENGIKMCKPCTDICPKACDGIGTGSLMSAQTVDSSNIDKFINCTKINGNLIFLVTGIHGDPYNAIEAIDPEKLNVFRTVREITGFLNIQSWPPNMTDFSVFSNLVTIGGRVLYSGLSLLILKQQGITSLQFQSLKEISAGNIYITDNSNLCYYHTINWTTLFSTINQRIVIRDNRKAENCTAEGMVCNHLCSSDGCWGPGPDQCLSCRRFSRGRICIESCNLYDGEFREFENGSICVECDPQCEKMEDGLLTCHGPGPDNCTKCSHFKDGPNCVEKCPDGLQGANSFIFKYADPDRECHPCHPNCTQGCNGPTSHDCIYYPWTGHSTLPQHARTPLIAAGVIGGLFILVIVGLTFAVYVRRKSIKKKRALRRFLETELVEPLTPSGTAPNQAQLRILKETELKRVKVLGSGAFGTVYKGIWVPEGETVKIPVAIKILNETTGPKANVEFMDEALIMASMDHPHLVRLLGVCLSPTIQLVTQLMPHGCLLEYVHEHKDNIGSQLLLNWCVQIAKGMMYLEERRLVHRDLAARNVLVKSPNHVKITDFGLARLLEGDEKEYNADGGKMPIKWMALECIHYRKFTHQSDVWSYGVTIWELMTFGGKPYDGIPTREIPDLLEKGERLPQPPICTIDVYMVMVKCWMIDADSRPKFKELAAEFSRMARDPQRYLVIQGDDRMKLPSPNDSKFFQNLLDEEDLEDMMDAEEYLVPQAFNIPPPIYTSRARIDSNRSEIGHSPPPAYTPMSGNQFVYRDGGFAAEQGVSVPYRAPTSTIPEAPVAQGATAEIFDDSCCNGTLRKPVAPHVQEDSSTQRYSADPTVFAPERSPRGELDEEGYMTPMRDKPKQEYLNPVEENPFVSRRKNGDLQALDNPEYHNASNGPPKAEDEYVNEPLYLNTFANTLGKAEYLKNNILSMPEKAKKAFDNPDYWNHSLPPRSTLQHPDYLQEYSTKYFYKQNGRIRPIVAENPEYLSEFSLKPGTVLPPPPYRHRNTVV
Tumor necrosis factor (Homo sapiens), sequence (P01375 whole entry): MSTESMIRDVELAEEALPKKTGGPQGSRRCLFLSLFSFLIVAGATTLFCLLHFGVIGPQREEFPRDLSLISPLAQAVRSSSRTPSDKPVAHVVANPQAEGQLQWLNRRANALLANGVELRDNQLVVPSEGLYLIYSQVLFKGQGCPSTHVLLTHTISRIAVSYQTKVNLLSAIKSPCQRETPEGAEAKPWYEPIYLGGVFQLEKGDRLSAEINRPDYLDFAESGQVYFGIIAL

CN(C)C(=O)Cn1cc(-c2nc([C@@](C)(c3ccc(-c4cnc(N)nc4)cc3)C3CC3)no2)cn1 [BI 665915]
inactive: [1] 141% | [2] 105% | [3] 98% | [4] 87% | [5] 80% | [6] 99% | [7] 94% | [8] 100% | [9] 98.5% | [10] 100% | [11] 90% | [12] 103% | [13] 96%
